Results: patent US20020082273A1, “Agents for use in the treatment of alzheimer's disease” (priority 1998, published 2002)

Key:
[1] = Table 1; K=[ML]/[M][L]; cited from earlier work
[2] = Table 1; K=[ML]/[M][L]; cited from earlier work; remark: listed apart in the source
[3] = Table 1; K=[ML]/[M][L]; cited from earlier work; remark: listed apart in the source
[4] = test system: Aβ1-40 or Aβ1-42 SDS-resistant polymers; test: Dissolution of in vitro Cu^2+-induced SDS-resistant Aβ polymers; assay type: biochemical, human; details: polymers generated at pH 7.4
[5] = Table 1; K=[ML]/[M][L]; cited from earlier work; remark: listed apart in the source
[6] = Table 1; K=[ML]/[M][L]; cited from earlier work; remark: listed apart in the source
[7] = Table 1; K=[ML]/[M][L]; cited from earlier work; remark: listed apart in the source
[8] = Table 1; K=[ML]/[M][L]; cited from earlier work; remark: listed apart in the source

SMILES: O=C(O)CN(CCN(CC(=O)O)CC(=O)O)CC(=O)O [EDTA, ethylenediaminetetra acetic acid]
- LogK, Co [1]: 16.5
- LogK, Fe [2]: 14.3
- LogK, Al [3]: 16.5
- effect of chelators on amount of SDS-resistant polymers [4]: less effective in destabilizing the polymers
- LogK, Ca [5]: 10.7
- LogK, Cu [6]: 18.8
- LogK, Mg [7]: 8.9
- LogK, Zn [8]: 16.5
